The results in this text go back to ChEMBL document CHEMBL1154377, “Evaluation of basic, heterocyclic ring systems as templates for use as potassium competitive acid blockers (pCABs)” (Bioorg Med Chem Lett, 2009).

Data set [1] in a line: Inhibition of H+/K+ ATPase at pH 7.4.
Data set [2] has as its target T1, Cytochrome P450 1A2 (Homo sapiens, UniProt P05177).
T1 sequence (P05177 whole entry): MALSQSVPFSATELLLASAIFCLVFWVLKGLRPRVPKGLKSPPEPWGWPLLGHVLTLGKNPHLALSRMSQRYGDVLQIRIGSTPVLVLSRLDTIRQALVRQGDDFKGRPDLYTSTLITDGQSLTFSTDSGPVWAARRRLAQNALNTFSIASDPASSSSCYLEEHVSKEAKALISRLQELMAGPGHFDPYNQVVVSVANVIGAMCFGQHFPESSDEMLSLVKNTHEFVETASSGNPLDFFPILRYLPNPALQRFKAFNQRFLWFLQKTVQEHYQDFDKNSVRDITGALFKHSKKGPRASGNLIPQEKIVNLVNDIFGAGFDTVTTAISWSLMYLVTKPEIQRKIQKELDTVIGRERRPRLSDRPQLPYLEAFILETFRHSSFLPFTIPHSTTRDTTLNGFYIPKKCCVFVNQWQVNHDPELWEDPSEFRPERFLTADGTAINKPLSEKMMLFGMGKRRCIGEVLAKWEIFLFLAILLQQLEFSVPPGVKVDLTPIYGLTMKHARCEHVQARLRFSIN
Description: Inhibition of CYP1A2. The class given is ADME.

The target of data set [3] is Cytochrome P450 2C19 (Homo sapiens, UniProt P33261). Description: Inhibition of CYP2C19. The class given is ADME.
The target of data set [4] is Cytochrome P450 2D6 (Homo sapiens, UniProt P10635). Description: Inhibition of CYP2D6. It is filed as ADME.
Data set [5] addresses T2, Cytochrome P450 3A4 (Homo sapiens, UniProt P08684). The experiment in a line: Inhibition of CYP3A4 using diethoxyfluorescein substrate. It is filed as ADME.
Data set [6] addresses T2, Cytochrome P450 3A4. The experiment in a line: Inhibition of CYP3A4 using 7-benzyloxyquinoline substrate. The class given is ADME.
Data set [7] is described as follows: Intrinsic clearance in rat liver microsomes. It is filed as ADME, Microsome. A general note: Liver microsomes are a subcellular fraction often used to study metabolism.
Data set [8] in a line: Intrinsic clearance in human liver microsomes. The class given is ADME, Microsome.
The nature of data set [9]: Dissociation constant, pKa of the compound. It is filed as physicochemical.
The nature of data set [10]: Chromatographic hydrophobicity index at pH 7.4 by fast gradient HPLC. It is filed as physicochemical. As to conditions: buffer.
Data set [11] concerns the target Cytochrome P450 2C9 (Homo sapiens, UniProt P11712).
Data set [12] can be described thus: Inhibition of H+/K+ ATPase in parietal cells assessed as inhibition of histamine-stimulated [14C]aminopyrine accumulation.

One may read the pIC50 as the negative decadic logarithm of the IC50, by convention in mol/L. Read a low pIC50 as a high IC50. By IC50 is commonly meant the midpoint of a concentration-inhibition curve. In general, CLint scaled refers to the rate of metabolic loss divided by the concentration. One may read the pKa as the pH at which an ionisable group is half protonated. For orientation: chromatographic logD means a lipophilicity value derived from retention on a column. A higher chromatographic logD goes with a more lipophilic compound.

Chain of Cytochrome P450 2C19 (P33261 whole entry): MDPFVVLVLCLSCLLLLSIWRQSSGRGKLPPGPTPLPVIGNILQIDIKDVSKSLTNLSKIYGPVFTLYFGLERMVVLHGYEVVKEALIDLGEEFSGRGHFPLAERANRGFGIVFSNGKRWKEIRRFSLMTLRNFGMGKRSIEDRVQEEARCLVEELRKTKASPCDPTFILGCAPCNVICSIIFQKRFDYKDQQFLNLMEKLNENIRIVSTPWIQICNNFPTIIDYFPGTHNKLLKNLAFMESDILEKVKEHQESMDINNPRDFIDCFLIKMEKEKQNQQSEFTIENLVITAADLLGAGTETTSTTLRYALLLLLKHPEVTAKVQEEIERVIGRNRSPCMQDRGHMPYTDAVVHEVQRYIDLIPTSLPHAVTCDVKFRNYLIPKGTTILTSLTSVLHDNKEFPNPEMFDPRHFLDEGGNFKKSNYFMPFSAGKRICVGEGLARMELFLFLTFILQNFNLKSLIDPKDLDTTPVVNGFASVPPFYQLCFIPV
Chain of Cytochrome P450 2C9 (P11712 whole entry): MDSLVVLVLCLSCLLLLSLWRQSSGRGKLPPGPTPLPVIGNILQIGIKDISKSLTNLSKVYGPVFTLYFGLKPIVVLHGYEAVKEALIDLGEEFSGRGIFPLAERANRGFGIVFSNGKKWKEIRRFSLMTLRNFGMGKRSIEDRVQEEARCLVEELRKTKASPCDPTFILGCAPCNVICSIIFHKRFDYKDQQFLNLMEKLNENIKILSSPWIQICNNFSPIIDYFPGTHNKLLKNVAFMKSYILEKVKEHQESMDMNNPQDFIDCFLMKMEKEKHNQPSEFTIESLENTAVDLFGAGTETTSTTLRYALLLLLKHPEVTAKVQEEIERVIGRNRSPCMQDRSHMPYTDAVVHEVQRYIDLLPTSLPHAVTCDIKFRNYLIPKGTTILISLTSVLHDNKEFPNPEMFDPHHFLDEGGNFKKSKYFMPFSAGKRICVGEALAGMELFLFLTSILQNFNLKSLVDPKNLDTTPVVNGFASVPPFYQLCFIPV
Chain of Cytochrome P450 2D6 (P10635 whole entry): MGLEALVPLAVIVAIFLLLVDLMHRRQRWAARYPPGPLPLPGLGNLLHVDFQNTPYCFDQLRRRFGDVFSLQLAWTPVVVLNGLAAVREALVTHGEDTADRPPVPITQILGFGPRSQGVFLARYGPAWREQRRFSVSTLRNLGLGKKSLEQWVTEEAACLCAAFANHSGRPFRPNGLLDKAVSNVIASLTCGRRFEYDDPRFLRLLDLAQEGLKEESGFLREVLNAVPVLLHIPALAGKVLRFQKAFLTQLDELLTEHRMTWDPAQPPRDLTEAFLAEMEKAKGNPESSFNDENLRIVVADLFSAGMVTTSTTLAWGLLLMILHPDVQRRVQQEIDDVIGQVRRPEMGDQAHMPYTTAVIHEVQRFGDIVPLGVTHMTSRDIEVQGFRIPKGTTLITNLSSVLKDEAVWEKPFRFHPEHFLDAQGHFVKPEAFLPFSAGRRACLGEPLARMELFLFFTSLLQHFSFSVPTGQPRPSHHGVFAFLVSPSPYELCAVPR
T2 sequence (P08684 whole entry): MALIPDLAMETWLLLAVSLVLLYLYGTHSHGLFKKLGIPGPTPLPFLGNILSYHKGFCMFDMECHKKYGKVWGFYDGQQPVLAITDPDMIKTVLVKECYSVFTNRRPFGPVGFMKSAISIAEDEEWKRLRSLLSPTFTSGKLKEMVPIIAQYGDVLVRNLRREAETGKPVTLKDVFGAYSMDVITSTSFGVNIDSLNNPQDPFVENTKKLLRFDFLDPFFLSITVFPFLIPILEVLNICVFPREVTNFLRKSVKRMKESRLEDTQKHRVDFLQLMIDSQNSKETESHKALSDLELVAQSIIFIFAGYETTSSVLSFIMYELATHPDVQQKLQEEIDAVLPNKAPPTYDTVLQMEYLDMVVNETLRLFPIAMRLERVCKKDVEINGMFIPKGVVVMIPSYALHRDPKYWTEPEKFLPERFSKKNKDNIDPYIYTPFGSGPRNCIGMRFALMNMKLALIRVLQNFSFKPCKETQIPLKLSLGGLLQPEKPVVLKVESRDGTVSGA

For `Cc1cccc(C)c1CNc1nccn2c(C)c(C)cc12`, in [1], the pIC50 was 7.6. In addition, the half-inhibitory concentration (IC50) in [2] was 6.1 µM; in [3] it was 4.7 µM; in data set [4], < 0.1 µM; in [5] it was 4.7 µM; in data set [6], 1600 nM; in [11], 14 µM. Besides, the IC50 in data set [12] was 141 nM. Further, the CLint scaled in data set [7] was determined as 50 mL/min/kg; in data set [8], 11 mL/min/kg. Further, in data set [9] (read-out: pKa), the pKa was found to be 7.92. This compound also had a chromatographic logD in data set [10] of 3.54.

`Cc1cccc(C)c1CNc1nc(N2CCOCC2=O)cc2c(C)c(C)n(CCO)c12`: in data set [1], the pIC50 was found to be 6.6. Moreover, the IC50 in data set [2] is > 100 µM; in [3], > 100 µM; in data set [4] it was 36 µM; in data set [5], 6 µM; in [6], 11000 nM; in data set [11] it was 13 µM. In [12], the IC50 was 79.4 nM. The values for the CLint scaled in data set [7] and in [8] were 6.5 mL/min/kg and 6.9 mL/min/kg, respectively. Further, the pKa in [9] (read-out: pKa) came out at 5.4. For the same compound, the chromatographic logD in data set [10] came to 2.93.

In turn, `Cc1cccc(C)c1CNc1nc(N2CCNC2=O)cc2c(C)c(C)[nH]c12` gave a pIC50 in [1] of 6.5. In addition, the IC50 in data set [2] was 22 µM; in [3], 8.2 µM; in data set [4], 0.7 µM; in data set [5], 1.6 µM; in data set [6] it was 1600 nM; in data set [11], 2.7 µM. Besides, the IC50 in [12] was 158 nM. In addition, the intrinsic metabolic clearance (CLint scaled) in data set [7] came to 6 mL/min/kg; in data set [8] it was 1.3 mL/min/kg. Moreover, the chromatographic logD in data set [10] is 2.54.

As for `Cc1cccc(C)c1CNc1nc(N2CCOCC2=O)cc2c(C)c(C)[nH]c12`, in [1], the pIC50 was determined as 5.9. For the same compound, the IC50 in data set [2] came out at 35 µM; in [3], 66 µM; in data set [4] it was 25 µM; in [5], 22 µM; in data set [6], 22000 nM; in data set [11], 61 µM. For the same compound, in data set [12], the IC50 is 200 nM. The CLint scaled was 4.3 mL/min/kg in [7] and 1.6 mL/min/kg in [8]. In addition, the pKa entry in data set [9] is “Insoluble”. Also, the chromatographic logD in data set [10] came to 2.83.

Compound `Cc1cccc(C)c1CNc1nc(-c2cccc(=O)[nH]2)cc2c(C)c(C)[nH]c12` gave a pIC50 in [1] of 5.1. Moreover, the IC50 in [2] was > 100 µM; in data set [3] it was 62 µM; in [4] it was 60 µM; in data set [5] it was 1.3 µM; in [6] it was 2200 nM; in data set [11] it was 2.3 µM. Besides, the IC50 in [12] is 316 nM. In addition, the pKa entry in data set [9] was “Insoluble”. This compound also displayed a chromatographic logD in [10] of 4.12.

Take `Cc1cccc(C)c1CNc1cccc2c1nc(C)n2C`: the pIC50 in data set [1] stood at 5.5. Also, the IC50 worked out at 2.1 µM in data set [2]; 9.2 µM in [3]; 35 µM in data set [4]; 13 µM in data set [5]; 9000 nM in data set [6]; 8.8 µM in [11]. Besides, the half-inhibitory concentration (IC50) in data set [12] is 44.7 nM. Further, the CLint scaled in data set [7] is 47 mL/min/kg; in data set [8], 8 mL/min/kg.

In data set [1], `Cc1cccc(C)c1CNc1nc(N2CCCC2=O)cc2c(C)c(C)[nH]c12` registered a pIC50 of 7.4. Besides, the IC50 in [2] is 26 µM; in [3] it was 6.4 µM; in [4], 1.9 µM; in [5], 1 µM; in data set [6] it was 1800 nM; in data set [11], 1.4 µM. Moreover, the IC50 in data set [12] is 158 nM. Moreover, the pKa in data set [9] (read-out: pKa) was determined as 6.32. This compound also returned a chromatographic logD in [10] of 3.77.

`Cc1cccc(C)c1CNc1ncnc2c(C)c(C)[nH]c12` displayed a pIC50 in [1] of 5.9. The IC50 in [2] was > 100 µM; in [3] it was > 10 µM; in [4] it was 0.3 µM; in [5] it was 8.8 µM; in data set [6] it was > 100000 nM; in data set [11], > 100 µM. For the same compound, in [12], the IC50 is 63.1 nM. Further, the CLint scaled was found to be 9 mL/min/kg in data set [7] and 2.8 mL/min/kg in [8]. This compound also displayed a chromatographic logD in data set [10] of 2.53.
